In paper PMC12444507 (ACS Omega, 2025):

How the values were obtained:
[1] = test system: SARS-CoV-2 strain JPN/TY/WK-521 (SARS-CoV-2^WK-521, ancestral Wuhan strain); conditions: cited from earlier work
[2] = test system: SARS-CoV-2^WK-521 infected VeroE6 cells
[3] = test system: SARS-CoV-2 strain JPN/TY/WK-521 (SARS-CoV-2^WK-521, ancestral Wuhan strain); format: cell-based

CC(C)(C)[C@H](NC(=O)C(F)(F)F)C(=O)N1C[C@H]2[C@@H]([C@H]1C(=O)N[C@H](C#N)C[C@@H]1CCNC1=O)C2(C)C [nirmatrelvir (1), nirmatrelvir]
EC50 [1]: 770 ± 180 nM

CC(C)(C)[C@H](NC(=O)C(F)(F)F)C(=O)N1C[C@H]2[C@@H]([C@H]1C(=O)N[C@@H](C[C@@H]1CCNC1=O)C(=O)c1nc3cc(F)ccc3s1)C2(C)C [TKB272 (8)]
cytotoxicity in immunostaining experiments [2]: no significant cytotoxicity
revertant mutagenicity (bacterial mutation): no revertant mutagenicity

CC(C)(C)[C@H](NC(=O)C(F)(F)F)C(=O)N1C[C@H]2[C@@H]([C@H]1C(=O)N[C@@H](C[C@@H]1CCNC1=O)C(=O)c1nc3c(Br)c(F)ccc3s1)C2(C)C [Compound 15]
lower potency than TKB272 (8) [3]: approximately 3 fold
